Patent publication US20110112193A1 (priority 2008, published 2011)

molecular target: T1, Recombinant human LTC4 synthase (Homo sapiens, UniProt Q16873); experiment: LTC4 synthase in vitro assay (e.g. by HTRF detection); format: biochemical
T1 construct: made in house; host or cells: Pichia pastoris ('Piccia pastoralis' [sic])
T1 sequence (Q16873 1-150): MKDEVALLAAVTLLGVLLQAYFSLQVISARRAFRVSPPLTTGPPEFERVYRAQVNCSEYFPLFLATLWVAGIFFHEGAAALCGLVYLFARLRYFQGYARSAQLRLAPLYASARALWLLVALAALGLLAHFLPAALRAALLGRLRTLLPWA
Procedure: In the assay, LTC4 synthase catalyses the reaction where the substrate LTA4 methyl ester is converted to the corresponding LTC4 methyl ester. Recombinant human LTC4 synthase is expressed in Piccia pastoralis and the purified enzyme is dissolved in 25 mM Tris-buffer pH 7.8 and stored at −80° C. The assay is performed in phosphate buffered saline (PBS) pH 7.4, supplemented with 5 mM glutathione (GSH). The reaction is terminated by addition of acetonitrile/MeOH/acetic acid (50/50/1). The assay is performed at rt in 96-well plates. Analysis of the formed LTC4 methyl ester is performed with reversed phase HPLC (Waters 2795 utilizing an Onyx Monolithic C18 column). The mobile phase consists of acetonitrile/MeOH/H2O (32.5/30/37.5) with 1% acetic acid pH adjusted with NH3 to pH 5.6, and absorbance measured at 280 nm with a Waters 2487 UV-detector.
The following is added chronologically to each well: • 1. 50 μl assay buffer, PBS with 5 mM GSH. • 2. 0.5 μl inhibitor in DMSO (final conc. 1 nM-10 μM). • 3. 2 μl LTC4 synthase in PBS. The total protein concentration in this solution is 0.025 mg/ml. Incubation of the plate at room temperature for 10 minutes. • 4. 1-1.5 μl LTA4 methyl ester (final conc. 10 μM). Incubation of the plate at rt for 1 min. • 5. 50 μl stop solution.
80 μl of the incubation mixture is analysed with HPLC.
Alternatively, HTRF detection can be used:
In the assay, LTC4 synthase catalyses the reaction where the substrate LTA4 is converted to LTC4. Recombinant human LTC4 synthase is expressed in Piccia pastoralis and the purified enzyme is dissolved in 25 mM tris-buffer pH 7.8 supplemented with 0.1 mM glutathione (GSH) and stored at −80° C. The assay is performed in phosphate buffered saline (PBS) pH 7.4 and 5 mM GSH in 384-well plates.
The following is added chronologically to each well:
1.48 μL LTC4 synthase in PBS with 5 mM GSH. The total protein concentration in this solution is 0.5 μg/mL.
2. 1 μL inhibitor in DMSO (final concentration 1 nM to 10 μM).
3. Incubation of the plate at room temperature for 10 min.
4. 1 μL LTA4 (final concentration 2.5 μM).
5. Incubation of the plate at room temperature for 5 min.
6. 10 μL of the incubation mixture is analysed using homogenous time resolved fluorescent (HTRF) detection.

Compound	IC50 [nM]
CCCCOc1ccc(S(=O)(=O)Nc2ccc(Oc3ccc(Nc4ccc(F)c(F)c4)cc3C(=O)O)cc2)cc1 [Example 1, 2-[4-(4-Butoxy-benzene-sulfonylamino)-phenoxy]-5-(3,4-difluoro-phenyl-amino)-benzoic acid]	243
CCCCOc1ccc(S(=O)(=O)Nc2ccc(Oc3ccc(Nc4ccc(F)c(F)c4)cc3C(=O)O)cc2C(=O)O)cc1 [Example 3, 2-(4-Butoxy-benzene-sulfonylamino)-5-[2-carboxy-4-(3,4-difluoro-phenylamino)-phenoxy]-benzoic acid]	1020
O=C(O)c1cc(Nc2ccc(F)c(F)c2)ccc1Oc1ccc(Nc2ccc(F)c(F)c2)cc1 [Example 2, 5-(3,4-Difluoro-phenylamino)-2-[4-(3,4-difluoro-phenylamino)-phenoxy]-benzoic acid]	1900
O=C(O)c1cc(Oc2ccc(Nc3ccc(F)c(F)c3)cc2C(=O)O)ccc1Nc1ccc(F)c(F)c1 [Example 4]	2030
